pEC50, pIC50: −log10 of the molar value.
Experiments:
[1] = target: Human immunodeficiency virus type 1 reverse transcriptase (Human immunodeficiency virus 1, UniProt Q72547); assay: Inhibition of recombinant HIV-1 reverse transcriptase
[2] = Antioxidant activity was evaluated by measuring the inhibition of oxidation of ABTS to ABTS+ by metmyoglobin in the presence of H2O2.; type: functional
[3] = test system: CCRF-CEM; assay: The compound was evaluated for percent reduction of H2O2-induced H2DCFDA fluorescence in human CEM T-cells.; type: functional; parameters: concentration or dose not given beside the values
[4] = test system: NALM-6; assay: The compound was evaluated for percent reduction of H2O2-induced H2DCFDA fluorescence in NALM-6-B-cells.; type: functional, Homo sapiens; parameters: concentration or dose not given beside the values

pIC50 [1] | pEC50 [2] | Compound | Reduction [3] | Reduction [4]
< 4.00 | < 3.00 | CS/C(=N\CCc1ccccc1Cl)Nc1ccc(Br)cn1 | – | –
6.05 | 3.75 | COc1ccc(CC/N=C(\S)Nc2ccc(Br)cn2)cc1 | 21.4% | 0%
< 4.00 | < 3.00 | Clc1ccccc1CC/N=C(/Nc1ccc(Br)cn1)SCc1ccccc1 | – | –
6.40 | 4.05 | COc1cccc(CC/N=C(\S)Nc2ccc(Br)cn2)c1 | 19.7% | 30.4%
< 4.00 | < 3.00 | COc1ccc(OC)c(CC/N=C(/Nc2ccc(Br)cn2)SCc2ccccc2)c1 | – | –
< 4.00 | < 3.00 | Fc1ccccc1CC/N=C(/Nc1ccc(Br)cn1)SCc1ccccc1 | – | –
– | 4.05 | COc1ccc(OC)c(CCNC(=S)Nc2ccc(Br)cn2)c1 | 29.4% | 11.8%
– | 4.05 | Fc1ccc(CC/N=C(\S)Nc2ccc(Br)cn2)cc1 | 13% | 2%
– | 3.96 | Fc1ccccc1CC/N=C(\S)Nc1ccc(Br)cn1 | 47% | –
5.89 | 4.01 | S=C(NCCc1ccccc1)Nc1ccc(Br)cn1 | 32.1% | 37.1%
6.00 | 4.10 | COc1ccccc1CC/N=C(\S)Nc1ccc(Br)cn1 | 72.3% | 94.2%
– | 4.00 | Fc1cccc(CC/N=C(\S)Nc2ccc(Br)cn2)c1 | 45% | –
– | 4.12 | S=C(NCCc1ccccc1Cl)Nc1ccc(Br)cn1 | 56.3% | 32%
– | 4.08 | CCCOC(=O)c1cc(O)c(O)c(O)c1 [PROPYL GALLATE] | – | –
< 4.00 | < 3.00 | Cc1cn([C@H]2C[C@H](N=[N+]=[N-])[C@@H](CO)O2)c(=O)[nH]c1=O [ZIDOVUDINE] | – | –
– | 3.42 | VITAMIN E | – | –
